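Protocol summary: plate cells (96-well), add compound at 5 concentrations, incubate 48 h, interpolate endpoints linearly. GI50 marks 50% less growth.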 Active and inactive are the calls of the source. No stated cut-off is given here; in the data, active = GI50 up to about 1.1 µM and inactive = higher.

Experimental findings from ChEMBL document CHEMBL1201862, “PubChem BioAssay data set” (2004) are described below.

Among the test systems are LXFL 529; DMS-273; RXF 631; KM-20L2; M19-MEL; DLD-1; SNB-78; DMS-114; XF498.
What all share (test): NCI anticancer screen, dose series, 48 h

Turning to `O=C1/C(=C/c2ccccc2)CN(C(=O)CCN2CCOCC2)C/C1=C\c1ccccc1`, the GI50 in the assay on LXFL 529 is 2.52 µM (inactive); in the assay with DMS-273 it was 1.87 µM (inactive); with RXF 631, 7.8 µM (inactive); with KM-20L2, 1.92 µM (inactive); in the assay on M19-MEL it was 2 µM (inactive); with DLD-1, 1.88 µM (inactive). For the same compound, the GI50 in the assay on SNB-78 was 6.4 µM (inactive); with DMS-114, 2.88 µM (inactive).
On to `CCO/C=C/C(C)C1(C(=O)OCC)CCCCC1=O` (centres undefined), for which the GI50 with LXFL 529 is > 100 µM (inactive); in the assay on XF498 it was > 100 µM (inactive); in the assay with DMS-273 it was 21.4 µM (inactive); in the assay on RXF 631, > 100 µM (inactive); in the assay with KM-20L2, > 100 µM (inactive); in the assay on M19-MEL, > 100 µM (inactive). Moreover, the GI50 in the assay with DLD-1 is > 100 µM (inactive); in the assay with SNB-78, > 100 µM (inactive); in the assay with DMS-114, 86.9 µM (inactive).
As for `CCOC(=O)C1=C(Nc2ccc(Br)cc2)OCC1=O`, the GI50 in the assay on LXFL 529, in the assay on DMS-273, with KM-20L2, with M19-MEL, with DLD-1 and with SNB-78 was > 100 µM (inactive) in each case.
Regarding `O=C1CCCC/C(=C/c2ccccc2)N1`, the GI50 with LXFL 529, in the assay on XF498, with DMS-273, in the assay on KM-20L2, in the assay with M19-MEL and with DLD-1 was > 100 µM (inactive) throughout. For the same compound, the GI50 in the assay with SNB-78 is > 100 µM (inactive); in the assay on DMS-114, 50.4 µM (inactive).
In the case of `NC1=NN(c2ccccc2)C(=O)C1C(=O)C(=O)Nc1nccs1` (centres undefined), the GI50 in the assay on LXFL 529, in the assay on DMS-273, with RXF 631, with KM-20L2, in the assay with M19-MEL and in the assay on DLD-1 was > 100 µM (inactive) throughout. Further, the GI50 in the assay on SNB-78 and in the assay with DMS-114 was > 100 µM (inactive) in each case.
As to `O=C(C(=O)N1CC2C=CC1CC2)c1c[nH]c2ccccc12` (centres undefined), the GI50 with LXFL 529, in the assay with DMS-273, in the assay with RXF 631, in the assay with KM-20L2, in the assay on M19-MEL and with DLD-1 was > 100 µM (inactive) in each case. The GI50 in the assay on SNB-78 and with DMS-114 was > 100 µM (inactive) each time.
Regarding `O=C1O/C(=C(\Br)c2cccc3ccccc23)c2ccccc21`, the GI50 in the assay on LXFL 529 was > 47.1 µM (inactive); in the assay on DMS-273 it was 24.5 µM (inactive); with KM-20L2, 25.1 µM (inactive); in the assay with M19-MEL, 36.1 µM (inactive); with DLD-1, 23.5 µM (inactive); in the assay on SNB-78 it was 30.8 µM (inactive). In addition, the GI50 in the assay with DMS-114 is > 33.3 µM (inactive).
On to `N/N=C1\C(=O)N(c2ccc(Cl)cc2Cl)C(=O)C(=O)C1c1nc2ccccc2o1` (centres undefined), for which the GI50 in the assay on LXFL 529, in the assay on DMS-273, with RXF 631, in the assay with KM-20L2, in the assay with M19-MEL and in the assay on DLD-1 was > 100 µM (inactive) each time. Further, the GI50 with SNB-78 and with DMS-114 was > 100 µM (inactive) throughout.
As to `Cc1ccc2nc(NC(=O)C(=O)C(C(=O)c3ccc4ccccc4c3)C3OC(=O)c4ccccc43)sc2c1` (centres undefined), the GI50 in the assay on LXFL 529 is 4.35 µM (inactive); with M19-MEL, 14.5 µM (inactive); in the assay with DLD-1, 13 µM (inactive); in the assay with SNB-78, 4.36 µM (inactive); in the assay on DMS-114, 8.22 µM (inactive).
For `COc1ccc(-c2cc(=O)c3ccccc3[nH]2)c(OC)c1`, the GI50 with LXFL 529, in the assay with DMS-273, in the assay with KM-20L2, with M19-MEL, with DLD-1 and with SNB-78 was > 100 µM (inactive) throughout. Further, the GI50 in the assay with DMS-114 is > 100 µM (inactive).
`CC(=O)O[C@H]1CC[C@@]2(C)C(=CC[C@@H]3C2CC[C@]2(C)Nc4[nH]ncc4CC32)C1` (some centres undefined): the GI50 in the assay with LXFL 529 is 19.9 µM (inactive); in the assay on XF498 it was 4.1 µM (inactive); in the assay with DMS-273, 16.9 µM (inactive); with RXF 631 it was 16.7 µM (inactive); in the assay with KM-20L2 it was 27.9 µM (inactive); in the assay with M19-MEL, 24.7 µM (inactive). The GI50 in the assay on DLD-1 was 32 µM (inactive); in the assay with SNB-78 it was 42.7 µM (inactive); in the assay with DMS-114, 16.5 µM (inactive).
Consider `CC(C)(C)C1CC[C@H]2c3c([nH]c4ccc(Br)cc34)[C@H]3C(=O)N(c4ccccc4)C(=O)[C@H]3[C@H]2C1` (some centres undefined), for which the GI50 in the assay on LXFL 529 was 14.3 µM (inactive); with XF498, 16.9 µM (inactive); in the assay with DMS-273, 6.27 µM (inactive); with RXF 631, 4.13 µM (inactive); in the assay with KM-20L2 it was 45.9 µM (inactive); in the assay on M19-MEL, 19.8 µM (inactive). For the same compound, the GI50 in the assay on DLD-1 was 27.8 µM (inactive); with SNB-78, 10 µM (inactive); in the assay on DMS-114, 18.2 µM (inactive).
Regarding `N#CCC(=O)N/N=C1/C(=O)NC(=O)C(=O)C1c1nc2ccccc2s1` (centres undefined), the GI50 in the assay with LXFL 529, with DMS-273, in the assay on RXF 631, in the assay on KM-20L2, in the assay on M19-MEL and in the assay on DLD-1 was > 100 µM (inactive) throughout. The GI50 in the assay with SNB-78 and in the assay on DMS-114 was > 100 µM (inactive) throughout.
For the compound `CCN(CC)CCn1ccc(=O)c2cc3c(=O)ccn(CCN(CC)CC)c3c(C)c21`, the GI50 in the assay on LXFL 529 is 4.41 µM (inactive); in the assay on XF498, 8.95 µM (inactive); with DMS-273, 3.58 µM (inactive); in the assay with RXF 631, 5.74 µM (inactive); with KM-20L2, 3.61 µM (inactive); in the assay on M19-MEL, 12.6 µM (inactive). Moreover, the GI50 is 1.65 µM (inactive) with DLD-1, 11.4 µM (inactive) in the assay with SNB-78 and 13.8 µM (inactive) in the assay on DMS-114.
As for `CCC(C)Cn1c(C)nc2c1C(=O)c1ccccc1C2=O` (centres undefined), the GI50 is 17 µM (inactive) with LXFL 529; 22.5 µM (inactive) in the assay on XF498; 9.86 µM (inactive) in the assay with DMS-273; 31.2 µM (inactive) in the assay with KM-20L2; 18.1 µM (inactive) in the assay on M19-MEL; 24.6 µM (inactive) in the assay on DLD-1. Besides, the GI50 with SNB-78 is 34.4 µM (inactive).
In the case of `CCCCCCCCCCCCOP(N)(=O)OCCCCCCCCCCCC`, the GI50 in the assay with LXFL 529, in the assay on DMS-273, in the assay with M19-MEL, in the assay with DLD-1, with SNB-78 and in the assay on DMS-114 was > 100 µM (inactive) each time.
For `CC1(C)C(=O)C(C)(C)C1=S`, the GI50 in the assay with LXFL 529, in the assay with XF498, with DMS-273, with KM-20L2, in the assay on M19-MEL and with DLD-1 was > 100 µM (inactive) in each case. Besides, in the assay on DMS-114, the GI50 was > 100 µM (inactive).
For `CCOP(=O)(C/C(O)=C1\C(=O)C(CCCNC(=O)OC(C)(C)C)N(Cc2ccc(OC)c(OC)c2)C1=O)OCC` (centres undefined), the GI50 with LXFL 529, with DMS-273, with RXF 631, in the assay with KM-20L2, in the assay on M19-MEL and with DLD-1 was > 100 µM (inactive) in each case. Further, the GI50 with DMS-114 is > 100 µM (inactive).
As for `COC(C)(C)[C@H](O)C(O)CC(C)[C@@H]1CCC23CC12CCC1[C@@]2(C)CCC(OC(C)=O)C(C)(C)C2CC(OC2OC(COC(C)=O)C(O)C(O)C2O)[C@]13C` (some centres undefined), the GI50 in the assay on LXFL 529 was 4.89 µM (inactive); with DMS-273, 2.97 µM (inactive); in the assay with RXF 631, 4.86 µM (inactive); in the assay on KM-20L2 it was 1.1 µM (active); in the assay on M19-MEL, 3.01 µM (inactive); in the assay with DLD-1 it was 1.83 µM (inactive). Also, the GI50 in the assay on SNB-78 is 8.07 µM (inactive); with DMS-114, 2.61 µM (inactive).
